Measurements: publication PMC4468202, “Improved Visualization and Specific Binding for Metabotropic Glutamate Receptor Subtype 1 (mGluR1) Using [^11C]ITMM with Ultra-High Specific Activity in Small-Animal PET” (PLoS ONE, 2015)

Key:
[1] = biological target: mGluR1 (Rattus norvegicus, UniProt P23385); test: In vitro binding assay with [^18F]FITM using cerebellum homogenate; parameters: from tissue; host or cells: cerebellum homogenate; settings: previous unpublished data, S4 Fig
[2] = tested on: translocater protein (TSPO); parameters: method as in PMID 20705143; settings: ipsilateral side of an ischemic rat brain; cited from earlier work

Sequence of mGluR1 (P23385 19-1199): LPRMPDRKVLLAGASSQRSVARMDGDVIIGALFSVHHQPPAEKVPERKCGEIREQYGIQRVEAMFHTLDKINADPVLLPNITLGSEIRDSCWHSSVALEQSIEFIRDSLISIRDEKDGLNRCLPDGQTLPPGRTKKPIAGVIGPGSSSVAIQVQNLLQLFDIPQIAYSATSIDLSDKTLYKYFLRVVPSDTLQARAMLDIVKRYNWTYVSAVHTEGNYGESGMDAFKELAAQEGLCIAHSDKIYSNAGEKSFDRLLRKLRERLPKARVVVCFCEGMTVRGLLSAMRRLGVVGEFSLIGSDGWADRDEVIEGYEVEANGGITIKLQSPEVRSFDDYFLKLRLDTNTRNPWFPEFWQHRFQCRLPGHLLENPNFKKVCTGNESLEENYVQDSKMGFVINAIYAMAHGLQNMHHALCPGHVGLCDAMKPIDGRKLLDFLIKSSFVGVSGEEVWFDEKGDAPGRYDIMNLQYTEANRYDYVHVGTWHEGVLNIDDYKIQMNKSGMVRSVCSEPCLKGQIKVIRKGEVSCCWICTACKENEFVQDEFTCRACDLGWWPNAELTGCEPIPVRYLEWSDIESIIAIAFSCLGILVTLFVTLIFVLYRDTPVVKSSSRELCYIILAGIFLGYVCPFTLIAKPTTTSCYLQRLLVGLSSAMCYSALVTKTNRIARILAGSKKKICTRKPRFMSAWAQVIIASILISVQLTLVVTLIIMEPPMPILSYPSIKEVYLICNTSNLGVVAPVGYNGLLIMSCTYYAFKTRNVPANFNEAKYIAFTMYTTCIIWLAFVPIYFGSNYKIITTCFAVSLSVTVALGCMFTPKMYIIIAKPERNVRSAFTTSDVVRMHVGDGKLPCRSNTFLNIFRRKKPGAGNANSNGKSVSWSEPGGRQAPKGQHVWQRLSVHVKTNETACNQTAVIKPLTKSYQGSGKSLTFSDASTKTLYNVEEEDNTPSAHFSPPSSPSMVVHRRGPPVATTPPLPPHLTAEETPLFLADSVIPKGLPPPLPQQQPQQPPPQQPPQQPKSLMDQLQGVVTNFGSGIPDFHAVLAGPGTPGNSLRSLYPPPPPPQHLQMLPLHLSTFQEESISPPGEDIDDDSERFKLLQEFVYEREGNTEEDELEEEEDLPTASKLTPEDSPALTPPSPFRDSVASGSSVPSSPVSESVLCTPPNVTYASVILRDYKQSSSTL

Row | SMILES | binding sites [1] | binding potential, ultra-high SA vs conventional SA [2]
1 | CC(C)Nc1cc(-c2csc(N(C)C(=O)c3ccc([18F])cc3)n2)ncn1 [[^18F]FITM, 4-[18F]fluoro-N-[4-[6-(isopropylamino)pyrimidin-4-yl]-1,3-thiazol-2-yl]-N-methylbenzamide] | two binding sites of [^18F]FITM possessing high and low affinities | 
2 | Cn1c(=O)n(CC(=O)N([11CH3])Cc2ccccc2)c2nc(-c3ccccc3)ncc21 [[^11C]DAC] |  | roughly two times higher
